PubChem BioAssay (NCI)
Several values for one entry are separate records, joined by “and”; a condition that tells them apart may be missing. Equal values may be shown once.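 Results reflect a 48-hour exposure of cells in 96-well plates to compound at five concentrations. Here, GI50 denotes the concentration required for 50% inhibition of growth. Definition used: TGI = concentration required for complete inhibition of growth.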

Key:
Experiment in all cases: NCI-60 cell line screen, 48 h
SK-MEL-28 melanoma = system: SK-MEL-28 melanoma
HL-60(TB) leukemia = system: HL-60(TB) leukemia
ACHN renal = system: ACHN renal
SNB-75 CNS = system: SNB-75 CNS
OVCAR-4 ovarian = system: OVCAR-4 ovarian
CCRF-CEM leukemia = system: CCRF-CEM leukemia
SNB-19 CNS = system: SNB-19 CNS
EKVX NSCLC = system: EKVX NSCLC
SK-OV-3 ovarian = system: SK-OV-3 ovarian
UO-31 renal = system: UO-31 renal

| Compound | TGI (SK-MEL-28 melanoma) [µM] | TGI (HL-60(TB) leukemia) [µM] | TGI (ACHN renal) [µM] | TGI (SNB-75 CNS) [µM] | TGI (OVCAR-4 ovarian) [µM] | TGI (CCRF-CEM leukemia) [µM] | TGI (SNB-19 CNS) [µM] | TGI (EKVX NSCLC) [µM] | TGI (SK-OV-3 ovarian) | TGI (UO-31 renal) [µM] | GI50 (SK-MEL-28 melanoma) | GI50 (HL-60(TB) leukemia) [µM] | GI50 (ACHN renal) [µM] | GI50 (SNB-75 CNS) [µM] | GI50 (OVCAR-4 ovarian) | GI50 (CCRF-CEM leukemia) [µM] | GI50 (SNB-19 CNS) [µM] | GI50 (EKVX NSCLC) [µM] | GI50 (SK-OV-3 ovarian) [µM] | GI50 (UO-31 renal) [µM] |
| --- | --- | --- | --- | --- | --- | --- | --- | --- | --- | --- | --- | --- | --- | --- | --- | --- | --- | --- | --- | --- |
| CCC1CN2CCc3cc(OC)c(OC)cc3C2CC1CC1c2cc(OC)c(OC)cc2CCN1C(=O)CNC(=O)OC(C)(C)C (configuration not stated) | 61 | 17.6 | 54.4 | 73.1 | 7.98 | 15.2 | 53.5 | 32.9 | 64.7 µM | 68.3 |  |  |  |  |  |  |  |  |  |  |
| O=C(O)CCC1CCc2cccc3occ1c23 (configuration not stated) | > 100 | > 100 | > 100 | > 100 | > 100 | > 100 | > 100 | > 100 | > 100 µM | > 100 |  |  |  |  |  |  |  |  |  |  |
| C/C(=N\NC(N)=O)C(CN(C)C)C(c1ccccc1)c1c(O)c2ccccc2oc1=O (configuration not stated) | > 100 | > 100 | > 100 | > 100 | > 100 | > 100 | > 100 | > 100 |  | > 100 |  |  |  |  |  |  |  |  |  |  |
| C[C@H](CSC(=O)c1ccccc1)C(=O)N1c2ccccc2C[C@H]1C(=O)O | > 100 | > 100 | > 100 | > 100 | > 100 | > 100 | > 100 | > 100 | > 100 µM | > 100 |  |  |  |  |  |  |  |  |  |  |
| C=C(N=[N+]=[N-])c1cn(C2CC(O)C(CO)O2)c(=O)[nH]c1=O (configuration not stated) | > 100 | > 100 | > 100 | > 100 |  | > 100 | > 100 | > 100 | > 100 µM | > 100 |  |  |  |  |  |  |  |  |  |  |
| O=c1[nH]cc(OCC(F)(F)F)c(=O)[nH]1 | > 100 | > 100 | > 100 | > 100 | > 100 | > 100 | > 100 | > 100 | > 100 µM | > 100 |  |  |  |  |  |  |  |  |  |  |
| CCCCC[C@H]1C/C=C2/C(=O)C(Cl)=C[C@@H]2C/C=C\CCCC(=O)O[C@@H](CCCCC)C/C=C2/C(=O)C(Cl)=C[C@@H]2C/C=C\CCCC(=O)O1 | 1.01 | 1.27 | 2.15 | 3.89 | 1.79 | 1.76 | 2.24 | 1.76 | 4.18 µM | 0.508 | 0.407 µM | 0.429 | 0.623 | 0.544 | 0.461 µM | 0.145 | 0.549 | 0.543 | 0.966 | 0.269 |
| Cn1cc(-c2ccc(CNc3cc(-c4cnc5cc(OCCCN6CCCC6)ccn45)ncn3)cc2)cn1 | 3.17 | 6.94 | 3.22 | 7.78 | 3.93 | > 100 | 8.43 | 9.59 | 43.3 µM | 2.82 | 1.65 µM | 2.31 | 1.78 | 1.79 | 1.88 µM | 2.72 | 2.5 | 3.01 | 23 | 1.41 |
| CC(C)=CC(=O)CC(=O)C(=O)Nc1ccc(Cl)c(Cl)c1 | > 100 | > 100 | > 100 | > 100 | > 100 | > 100 | > 100 | > 100 | > 100 µM | > 100 |  |  |  |  |  |  |  |  |  |  |
| Cc1c2ccncc2c(C)c2c1[nH]c1ccc(OC(C)(C)C)cc12 | 3.77 | 3.83 |  | 3.73 | 4.21 | 5.77 | 7.53 | 36.2 | 18.8 µM | 4.3 |  |  |  |  |  |  |  |  |  |  |
| Cc1cccc(C(C)(C)C)c1NC(=O)C(=O)C(c1cnc2ccccc2n1)[N+](=O)[O-] (configuration not stated) | > 100 | > 100 | > 100 | > 100 | > 100 | > 100 | > 100 | > 100 | > 100 µM | > 100 |  |  |  |  |  |  |  |  |  |  |
| CN(C)C(=O)C1CCC(=C2C(=O)OC(C)(C)OC2=O)N1C (configuration not stated) | > 100 |  | > 100 | > 100 | > 100 | > 100 | > 100 | > 100 | > 100 µM | > 100 |  |  |  |  |  |  |  |  |  |  |
| CCc1c2c(nc3cccc(N)c13)-c1cc3c(c(=O)n1C2)COC(=O)[C@]3(O)CC | > 100 | 0.0182 |  | 16.9 | > 100 |  | 0.0512 | > 100 | 4.13 µM and 13 µM | 0.397 | 0.113 µM and 0.034 µM | 0.00127 |  | 0.0158 | 0.104 µM and 0.0238 µM | < 0.001 | 0.00176 | 0.187 | 0.00719 | 0.0516 |
| COc1ccc(COCC(Cn2ccnc2)OCc2ccc(C(=O)O)cc2)cc1 (configuration not stated) | > 100 | > 100 | > 100 | > 100 | > 100 | > 100 |  | > 100 | > 100 µM | > 100 |  |  |  |  |  |  |  |  |  |  |
